Source: patent publication US9611330B2, “Compositions and methods for cancer and cancer stem cell detection and elimination” (The Regents of the University of California, priority 2011, dated 2017)
Entries after “also recorded” stand apart in the source; their conditions may differ. Read-outs that look alike come from different tables or passages of the source.

Key:
[1] = tested on: Shh stimulated luciferase expression under an 8× Gli-response element; assay: Mouse embryonic fibroblast Gli-luciferase reporter assay (Gli-Luc MEFs); type: cell-based; settings: n=5, read-out: IC50, inhibition of Shh stimulated luciferase reporter activity in Gli-Luc MEFs
Excerpt: Mouse Embryonic Fibroblast Gli-Luciferase Assay Mouse Embryonic Fibroblasts expressing luciferase under control of an 8× Gli-response element (Gli-Luc MEFs)^23 were obtained from the Pfizer transgenic core facility. Luciferase activity was quantified with an ENVISION™ plate reader (Perkin Elmer). Graphpad Prism was used for data analysis and IC50 calculation.

[2] = tested on: human blast crisis CML LSC; type: in vivo
Description: Human Progenitor Primagrafts and Treatment
Equal numbers of primary normal or blast crisis CML CD34^+ cells were transplanted intrahepatically into neonatal RAG2^−/−γc^−/− mice to form primagrafts, according to established methods^1, 3. At 8-12 weeks post-transplant, mice were treated with PF-04449913, Dasatinib, a combination of PF-04449913 and Dasatinib, or drug vehicle for 14 days followed by FACS analysis of human hematopoietic engraftment in hematopoietic tissues.
Nanofluidic phospho-proteomic immunoassay (NPI) experiments were performed with the NANOPRO 1000™ instrument (Cell Biosciences) and all samples were run in triplicate at least. The FIREFLY™ system first performed a charge-based separation (isoelectric focusing). Predicted pIs were calculated with SCANSITE™. Each sample was run on a panel of different pH gradients (pH 5-8) to optimize the resolution of different peak patterns. After separation and photo-activated in-capillary immobilization, GLI-2 was detected using GLI2-specific antibody (Abcam). A β2-microglubulin-specific antibody (β2M; Upstate) was used to normalize the amount of loaded protein. The peaks were quantified by calculating the area under the curve (AUC).
Primagrafts, in vivo Drug Treatment, and Engraftment Analysis
Immunocompromised RAG2^−/−γc^−/− mice were bred and maintained in the UC San Diego Moores Cancer Center vivarium. Neonatal mice were transplanted intrahepatically with normal progenitors or LSC from primary patient samples according to our previously published methods^19. Upon detection of tumor or peripheral blood engraftment, mice were treated daily by oral gavage with vehicle (50% 1,2 Propandiol, 50% HBSS or methylcellulose), PF-04449913 (100 mg/kg dissolved in vehicle), Dasatinib (50 mg/kg dissolved in vehicle), combination of PF-04449913 (100 mg/kg) and dasatinib (50 mg/kg). After treatment, mice were euthanized and single cell suspensions of hematopoietic tissues were analyzed for human engraftment by FACS as described previously^19, 20. Similarly, NOD.
Four vehicle-treated and four PF-04449913-treated samples constituting two sets of four technical replicates. The reads from the four RNA sequencing experiments under each treatment regimen were then combined for analysis of effects of vehicle and PF-04449913-treatment containing a total of 65M and 64M reads, respectively and compared with normal FACS purified cord blood CD34^+CD38^+Lin^− progenitors.
(§1) Single cell suspensions of bone marrow cells from mice treated with PF-0449913 or vehicle were immunostained with Alexa647-conjugated anti-human CD45 (BioLegend) in 2% fetal bovine serum/PBS followed by live cell staining using the LIVE/DEAD® Fixable Near-IR Dead Cell Stain Kit (Invitrogen). Surface stained cells were then fixed in 70% ethanol overnight. Fixed, surface stained cells were immunostained with FITC-conjugated anti-Ki-67 (Abcam, 1:100) in 0.15% saponin/2% fetal bovine serum/PBS, washed twice in saponin-containing staining media and incubated with 7-AAD (10 μg/mL in 0.1M sodium citrate/5 mM EDTA pH8.0/0.15M NaCl/0.5% BSA/0.02% saponin). Stained samples were analyzed using a FACSARIA™ and FLOWJO™^21.

[3] = tested on: normal human cord blood HSPC; assay: Normal human HSPC in hematopoietic progenitor assays and SL/M2 co-culture; type: cell-based
Description: (§2) Normal or blast crisis CML CD34^+ cells were plated on confluent mitomycin-C treated SL/M2 cells with different doses of PF-04449913, dasatinib, a combination of PF-04449913 and dasatinib, or vehicle for […]. After 1 week of culture, FACS was used to quantify human progenitors and progenitors were FACS sorted into hematopoietic progenitor assays. Colonies were scored after 2 weeks in culture.
(§3) The mouse bone marrow stromal cells lines M2-10B4 (M2) and SL/SL (SL) were provided by StemCell Technologies on behalf of Dr. Donna Hogge in the Terry Fox Laboratory (Vancouver, British Columbia). One day prior to co-culture, the cell lines were treated with mitomycin-C (1 mg/ml) and plated in a 1:1 mixture in total concentration of 100,000/ml. 10,000-20,000 CD34^+ blast crisis CML or normal cells were then plated on adherent SL/M2 stromal cells, cultured for 7 days, and analyzed by FACS as described previously^19. To assess expansion of normal human HS/PCs, irradiated OP9 (M2 clone) stromal cells (20 Gray on a Saxon-Mark1 irradiator) were co-cultured with 50,000 human CD34^+ cord blood. OP9M2 stroma was grown in AlphaMem from Gibco with 20% Hyclone FBS, 1% pen strep glutamine and supplemented with cytokines: […] Flt3.

[4] = tested on: Ptch+/−p53+/− medulloblastoma allografts; assay: Mouse medulloblastoma allograft model; type: in vivo; settings: oral dosing
Excerpt: TAQMAN™ primer/probe sets (ABI) for FoxM1 (Mm00514924_ml), Gli1 (Mm00494645_ml), Gli2 (Mm01293117_ml), Mycn (Mm00476449_ml), Ptch1 (Mm00436026_ml), Ptch2 (Mm00436047_ml), Sfrp1 (Mm00489161_ml), Smo (Mm01162710_ml) and mouse GAPDH (4352339E), on the ABI 7900HT instrument. Target gene expression levels were normalized to mouse GAPDH and calibrated to vehicle treated mice to yield the relative quantitation (RQ) value. Selective Shh Inhibition in a Mouse Medulloblastoma Allograft Model Primary medulloblastoma tumors were harvested from Ptch^+/−p53^+/− or Ptch^+/−p53^−/− mice and propagated as allografts in SCID-bg mice 6-8 weeks of age (20 grams). Freshly isolated tumor fragments of approximately 50 mm^3 were surgically implanted subcutaneously into the hind flank region. Body weights and tumor size (length and width) were measured at regular intervals using a caliper and tumor volume was calculated using the formula: length (mm)×width (mm)×width (mm)×0.4. For the tumor growth inhibition studies, cohorts of Ptch^+/−p53^+/− medulloblastoma allograft bearing mice with tumors ranging from 200 mm^3 to 1000 mm^3 were dosed daily by oral gavage with vehicle (30% PEG 400/70% PBS) or with PF-04449913 formulated in vehicle.

[5] = target: T1, human SMO (amino acids 181-787) (Homo sapiens, UniProt Q99835); assay: SMO radioligand competition binding assay
T1 construct: V5-His (named only in the vector, pSecTag-FRT/V5-His); expressed in transfected cells; membranes prepared
T1 sequence (Q99835 181-787): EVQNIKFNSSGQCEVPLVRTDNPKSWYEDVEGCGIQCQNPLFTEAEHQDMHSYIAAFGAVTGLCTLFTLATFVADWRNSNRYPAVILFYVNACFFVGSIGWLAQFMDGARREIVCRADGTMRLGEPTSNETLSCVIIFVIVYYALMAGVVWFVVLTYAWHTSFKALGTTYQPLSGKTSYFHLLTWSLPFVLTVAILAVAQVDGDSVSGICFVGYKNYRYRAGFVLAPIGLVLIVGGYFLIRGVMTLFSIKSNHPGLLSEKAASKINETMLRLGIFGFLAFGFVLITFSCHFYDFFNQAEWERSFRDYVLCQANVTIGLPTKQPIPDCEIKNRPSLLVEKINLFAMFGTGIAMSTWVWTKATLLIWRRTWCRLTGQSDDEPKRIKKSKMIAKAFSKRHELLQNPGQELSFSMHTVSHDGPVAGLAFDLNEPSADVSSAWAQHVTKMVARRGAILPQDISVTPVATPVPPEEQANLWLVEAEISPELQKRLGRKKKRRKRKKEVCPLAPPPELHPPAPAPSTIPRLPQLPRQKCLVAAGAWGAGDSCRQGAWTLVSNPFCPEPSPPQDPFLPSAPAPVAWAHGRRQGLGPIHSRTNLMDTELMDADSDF
Description: SMO Radioligand Competition Binding Assay
Membranes were prepared from a stable cell line created in HEK293FlpIn-TetR cells (Invitrogen) using Flp recombinase-mediated insertion of the pSecTag-FRT/V5-His vector containing a cDNA encoding amino acids 181-787 of human Smo fused to the murine Igk leader sequence to produce a cell surface expressed […] protein. LacZ-negative cells were analyzed for binding a well characterized cyclopamine-competitive tritiated Smo antagonist^22. The tritiated ligand was prepared using Crabtree's catalyst and tritium gas. The labeled material was purified by RP HPLC (53.1 Ci/mmol specific activity at 99% purity). For the binding competition assay, 100 μl of assay buffer was added to all the wells of a 96 well GF/B filter plate (Millipore MULTISCREEN-HTS-FB™ cat # MSFBN6B50). The plates were counted in a TOPCOUNT™ scintillation counter (Perkin Elmer). Data analysis uses EXCEL™ for % Inhibition and GRAPHPAD PRISM™ for IC50 calculation.

[6] = tested on: blast crisis CML leukemic progenitors (LSC); assay: SL/M2 stromal co-culture of blast crisis CML LSC; type: cell-based, human; settings: 7 days, vs vehicle (DMSO), p=0.047
Description: Stromal Co-Culture and in vitro Drug Treatment
as §2, §3

normal human HSPC = assay: CD34+ cord blood engrafted NSG mice, 14-day treatment; type: in vivo; settings: 100 mg/kg for 14 days
Description: Cg-Prkdc^scid Il2rg^tm1Wjl/SzJ female mice at 7-10 weeks were irradiated sublethally and transplanted with 100K CD34^+ human cord blood cells via retro-orbital injection. Eight weeks after transplantation of cord blood cells, the mice were treated for 14 days with either vehicle, or PF-04449913 via oral gavage.
as §1

[7] = cell cycle FACS, bone marrow, 14 days

CN1CC[C@@H](NC(=O)Nc2ccc(C#N)cc2)C[C@@H]1c1nc2ccccc2[nH]1 [PF-04449913]
IC50 [1]: 6.8 nM
spleen weight ([2]; 100 mg/kg daily, 14 days, p=0.006): significant decrease
body weight ([2]; 100 mg/kg oral gavage, 14 days): no evidence of weight loss
GLI1 transcript level in FACS purified progenitors ([2]; 100 mg/kg, 14 days, p=0.056): reductions
GLI2 transcript level in FACS purified progenitors ([2]; 100 mg/kg, 14 days, p=0.08): reductions
expression of cell cycle regulators ([2]; RNA sequencing of engrafted leukemic progenitors, family wise p-value 0.02): repression of cell cycle regulators
cell cycle gene isoforms shifting toward normal progenitor splice isoform pattern ([2]; RNA sequencing, Fisher exact test p=0.0006): 75 of 110
sonic hedgehog pathway isoforms reverting to normal progenitor splice isoform pattern ([2]; RNA sequencing, Fisher exact test p=0.0048): 37 of 50
fraction of leukemic progenitors in G0 [2, 7]: reduced the fraction of leukemic progenitors in G0
fraction of leukemic progenitors in G1 [2, 7]: increase in the G1 fraction
human GLI protein expression ([2]; immunofluorescence and nanoproteomics (p=0.001), vs vehicle): reduced human GLI protein expression
percentage of normal HSPC ([3]; 7 days SL/M2 stromal co-culture): remained constant
differentiation capacity of normal human HSPC ([3]; hematopoietic progenitor assays): unimpaired
medulloblastoma growth ([4]; Ptch1+/−p53+/− allograft model): significantly reduce medulloblastoma growth
Shh target gene expression in allograft ([4]; Ptch+/−p53+/− allografts): decreased Shh target gene expression
IC50 ([5]; 4.3 nM+/−5.2 nM, N=5, read-out: IC50, SMO competition binding, value with spread): 4.3 nM
IC50 ([5]; cyclopamine-competitive tritiated SMO antagonist, read-out: IC50, competition with radiolabeled SMO antagonist for binding to human SMO (amino acids 181-787)): 4 nM
LSC / leukemic progenitor survival [6]: significantly reduced; also recorded: reduction in blast crisis leukemic progenitor survival
frequency of HSPC, myeloid and lymphoid cell fate commitment (normal human HSPC): remained comparable to vehicle treated controls
human hematopoietic cell cycle status (normal human HSPC): unaltered
